{"source": "the supplement of paper PMC10307832", "test_in_all_cases": "relative viability (nuclei count vs DMSO), 5 days (fraction); higher = more cells survive", "key": {"201T": {"tested_on": "201T", "summary_of_the_method": "(§1)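 Relative viability divides the nuclei count in treated wells by that in vehicle wells. Lung cancer cell lines were seeded in 1536-well plates, dosed by pin tool the next day, and fixed and stained after 5 days in one step with final 0.05% Triton X-100, 1% formaldehyde and 1 ug/ml Hoechst. Dosing was a single drug or a fixed anchor-drug dose plus five library-drug doses (not always all listed) in √10 steps, and values are medians of duplicate plates imaged at 4×.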"}, "A-427": {"tested_on": "A-427", "summary_of_the_method": "as §1"}, "BEN": {"tested_on": "BEN", "summary_of_the_method": "as §1"}, "COR-L 105": {"tested_on": "COR-L 105", "summary_of_the_method": "as §1"}, "COR-L23": {"tested_on": "COR-L23", "summary_of_the_method": "as §1"}, "EKVX": {"tested_on": "EKVX", "summary_of_the_method": "as §1"}, "HARA": {"tested_on": "HARA", "summary_of_the_method": "as §1"}, "HCC-15": {"tested_on": "HCC-15", "summary_of_the_method": "as §1"}, "HCC-44": {"tested_on": "HCC-44", "summary_of_the_method": "as §1"}, "HCC-827": {"tested_on": "HCC-827", "summary_of_the_method": "as §1"}, "LK-2": {"tested_on": "LK-2", "summary_of_the_method": "as §1"}, "NCI-H1437": {"tested_on": "NCI-H1437", "summary_of_the_method": "as §1"}, "NCI-H1666": {"tested_on": "NCI-H1666", "summary_of_the_method": "as §1"}, "NCI-H1792": {"tested_on": "NCI-H1792", "summary_of_the_method": "as §1"}, "NCI-H1975": {"tested_on": "NCI-H1975", "summary_of_the_method": "as §1"}, "NCI-H23": {"tested_on": "NCI-H23", "summary_of_the_method": "as §1"}, "NCI-H358": {"tested_on": "NCI-H358", "summary_of_the_method": "as §1"}, "NCI-H441": {"tested_on": "NCI-H441", "summary_of_the_method": "as §1"}, "NCI-H596": {"tested_on": "NCI-H596", "summary_of_the_method": "as §1"}, "NCI-H650": {"tested_on": "NCI-H650", "summary_of_the_method": "as §1"}, "NCI-H838": {"tested_on": "NCI-H838", "summary_of_the_method": "as §1"}, "SK-MES-1": {"tested_on": "SK-MES-1", "summary_of_the_method": "as §1"}}, "data": [{"smiles": "O=C(O)c1ccc(-c2c[nH]c3ncc(-c4ccccc4)cc23)cc1C1CCCC1", "note": "+ C[C@]1(O)C[C@@H](c2nc(-c3ccc4ccc(-c5ccccc5)nc4c3)c3c(N)nccn32)C1 [Linsitinib] (partner 1 µM)", "values": [{"measurement": "relative viability", "setting": "201T; first compound 0.04 µM", "result": 1.07}, {"measurement": "relative viability", "setting": "201T; first compound 0.1265 µM", "result": 1.06}, {"measurement": "relative viability", "setting": "201T; first compound 0.4 µM", "result": 0.979}, {"measurement": "relative viability", "setting": "201T; first compound 1.265 µM", "result": 0.946}, {"measurement": "relative viability", "setting": "A-427; first compound 0.04 µM", "result": 1.14}, {"measurement": "relative viability", "setting": "A-427; first compound 0.1265 µM", "result": 1.1}, {"measurement": "relative viability", "setting": "A-427; first compound 0.4 µM", "result": 1.05}, {"measurement": "relative viability", "setting": "A-427; first compound 1.265 µM", "result": 0.865}, {"measurement": "relative viability", "setting": "BEN; first compound 0.04 µM", "result": 1.03}, {"measurement": "relative viability", "setting": "BEN; first compound 0.1265 µM", "result": 1.03}, {"measurement": "relative viability", "setting": "BEN; first compound 0.4 µM", "result": 0.931}, {"measurement": "relative viability", "setting": "BEN; first compound 1.265 µM", "result": 0.859}, {"measurement": "relative viability", "setting": "COR-L 105; first compound 0.04 µM", "result": 1.07}, {"measurement": "relative viability", "setting": "COR-L 105; first compound 0.1265 µM", "result": 0.919}, {"measurement": "relative viability", "setting": "COR-L 105; first compound 0.4 µM", "result": 1}, {"measurement": "relative viability", "setting": "COR-L 105; first compound 1.265 µM", "result": 0.92}, {"measurement": "relative viability", "setting": "COR-L23; first compound 0.04 µM", "result": 0.866}, {"measurement": "relative viability", "setting": "COR-L23; first compound 0.1265 µM", "result": 0.951}, {"measurement": "relative viability", "setting": "COR-L23; first compound 0.4 µM", "result": 0.771}, {"measurement": "relative viability", "setting": "COR-L23; first compound 1.265 µM", "result": 0.444}, {"measurement": "relative viability", "setting": "EKVX; first compound 0.04 µM", "result": 0.984}, {"measurement": "relative viability", "setting": "EKVX; first compound 0.1265 µM", "result": 1.18}, {"measurement": "relative viability", "setting": "EKVX; first compound 0.4 µM", "result": 1.11}, {"measurement": "relative viability", "setting": "EKVX; first compound 1.265 µM", "result": 0.713}, {"measurement": "relative viability", "setting": "HARA; first compound 0.04 µM", "result": 0.905}, {"measurement": "relative viability", "setting": "HARA; first compound 0.1265 µM", "result": 0.983}, {"measurement": "relative viability", "setting": "HARA; first compound 0.4 µM", "result": 0.994}, {"measurement": "relative viability", "setting": "HARA; first compound 1.265 µM", "result": 0.748}, {"measurement": "relative viability", "setting": "HCC-15; first compound 0.04 µM", "result": 0.869}, {"measurement": "relative viability", "setting": "HCC-15; first compound 0.1265 µM", "result": 0.928}, {"measurement": "relative viability", "setting": "HCC-15; first compound 0.4 µM", "result": 0.785}, {"measurement": "relative viability", "setting": "HCC-15; first compound 1.265 µM", "result": 0.567}, {"measurement": "relative viability", "setting": "HCC-44; first compound 0.04 µM", "result": 0.664}, {"measurement": "relative viability", "setting": "HCC-44; first compound 0.1265 µM", "result": 0.636}, {"measurement": "relative viability", "setting": "HCC-44; first compound 0.4 µM", "result": 0.515}, {"measurement": "relative viability", "setting": "HCC-44; first compound 1.265 µM", "result": 0.57}, {"measurement": "relative viability", "setting": "HCC-827; first compound 0.04 µM", "result": 0.966}, {"measurement": "relative viability", "setting": "HCC-827; first compound 0.1265 µM", "result": 0.976}, {"measurement": "relative viability", "setting": "HCC-827; first compound 0.4 µM", "result": 0.884}, {"measurement": "relative viability", "setting": "HCC-827; first compound 1.265 µM", "result": 0.702}, {"measurement": "relative viability", "setting": "LK-2; first compound 0.04 µM", "result": 0.667}, {"measurement": "relative viability", "setting": "LK-2; first compound 0.1265 µM", "result": 0.587}, {"measurement": "relative viability", "setting": "LK-2; first compound 0.4 µM", "result": 0.549}, {"measurement": "relative viability", "setting": "LK-2; first compound 1.265 µM", "result": 0.902}, {"measurement": "relative viability", "setting": "NCI-H1437; first compound 0.04 µM", "result": 1.03}, {"measurement": "relative viability", "setting": "NCI-H1437; first compound 0.1265 µM", "result": 1.09}, {"measurement": "relative viability", "setting": "NCI-H1437; first compound 0.4 µM", "result": 0.969}, {"measurement": "relative viability", "setting": "NCI-H1437; first compound 1.265 µM", "result": 0.55}, {"measurement": "relative viability", "setting": "NCI-H1666; first compound 0.04 µM", "result": 0.755}, {"measurement": "relative viability", "setting": "NCI-H1666; first compound 0.1265 µM", "result": 0.829}, {"measurement": "relative viability", "setting": "NCI-H1666; first compound 0.4 µM", "result": 0.703}, {"measurement": "relative viability", "setting": "NCI-H1666; first compound 1.265 µM", "result": 0.81}, {"measurement": "relative viability", "setting": "NCI-H1792; first compound 0.04 µM", "result": 0.577}, {"measurement": "relative viability", "setting": "NCI-H1792; first compound 0.1265 µM", "result": 0.727}, {"measurement": "relative viability", "setting": "NCI-H1792; first compound 0.4 µM", "result": 0.56}, {"measurement": "relative viability", "setting": "NCI-H1792; first compound 1.265 µM", "result": 0.558}, {"measurement": "relative viability", "setting": "NCI-H1975; first compound 0.04 µM", "result": 0.903}, {"measurement": "relative viability", "setting": "NCI-H1975; first compound 0.1265 µM", "result": 0.935}, {"measurement": "relative viability", "setting": "NCI-H1975; first compound 0.4 µM", "result": 0.951}, {"measurement": "relative viability", "setting": "NCI-H1975; first compound 1.265 µM", "result": 1}, {"measurement": "relative viability", "setting": "NCI-H23; first compound 0.04 µM", "result": 0.545}, {"measurement": "relative viability", "setting": "NCI-H23; first compound 0.1265 µM", "result": 0.617}, {"measurement": "relative viability", "setting": "NCI-H23; first compound 0.4 µM", "result": 0.559}, {"measurement": "relative viability", "setting": "NCI-H23; first compound 1.265 µM", "result": 0.451}, {"measurement": "relative viability", "setting": "NCI-H358; first compound 0.04 µM", "result": 0.649}, {"measurement": "relative viability", "setting": "NCI-H358; first compound 0.1265 µM", "result": 0.819}, {"measurement": "relative viability", "setting": "NCI-H358; first compound 0.4 µM", "result": 0.674}, {"measurement": "relative viability", "setting": "NCI-H358; first compound 1.265 µM", "result": 0.386}, {"measurement": "relative viability", "setting": "NCI-H441; first compound 0.04 µM", "result": 0.666}, {"measurement": "relative viability", "setting": "NCI-H441; first compound 0.1265 µM", "result": 0.674}, {"measurement": "relative viability", "setting": "NCI-H441; first compound 0.4 µM", "result": 0.563}, {"measurement": "relative viability", "setting": "NCI-H441; first compound 1.265 µM", "result": 0.531}, {"measurement": "relative viability", "setting": "NCI-H596; first compound 0.04 µM", "result": 0.974}, {"measurement": "relative viability", "setting": "NCI-H596; first compound 0.1265 µM", "result": 1.05}, {"measurement": "relative viability", "setting": "NCI-H596; first compound 0.4 µM", "result": 1.19}, {"measurement": "relative viability", "setting": "NCI-H596; first compound 1.265 µM", "result": 1.03}, {"measurement": "relative viability", "setting": "NCI-H650; first compound 0.04 µM", "result": 0.844}, {"measurement": "relative viability", "setting": "NCI-H650; first compound 0.1265 µM", "result": 1.04}, {"measurement": "relative viability", "setting": "NCI-H650; first compound 0.4 µM", "result": 0.861}, {"measurement": "relative viability", "setting": "NCI-H650; first compound 1.265 µM", "result": 0.679}, {"measurement": "relative viability", "setting": "NCI-H838; first compound 0.04 µM", "result": 1.03}, {"measurement": "relative viability", "setting": "NCI-H838; first compound 0.1265 µM", "result": 1.16}, {"measurement": "relative viability", "setting": "NCI-H838; first compound 0.4 µM", "result": 1.09}, {"measurement": "relative viability", "setting": "NCI-H838; first compound 1.265 µM", "result": 0.997}, {"measurement": "relative viability", "setting": "SK-MES-1; first compound 0.04 µM", "result": 1.18}, {"measurement": "relative viability", "setting": "SK-MES-1; first compound 0.1265 µM", "result": 1.09}, {"measurement": "relative viability", "setting": "SK-MES-1; first compound 0.4 µM", "result": 0.997}, {"measurement": "relative viability", "setting": "SK-MES-1; first compound 1.265 µM", "result": 0.749}]}]}
